Reference: US5593988A, “Therapeutic agent for osteoporosis and diazepine compound” (Yoshitomi Pharmaceutical Industries, Ltd., priority 1991, dated 1997)

These molecules were tested on bone resorption (parietal bone) (assay: Bone resorption-inhibitory activity (45Ca release from newborn mouse parietal bone, hPTH (1-34) stimulated, method of Raisz)). Conditions: 5 μM, Table 20, average of four pairs, read-out: bone resorption-inhibitory action, % against control.
Assay type: cell-based, ICR mouse
Excerpt: The method for determining the bone resorption-inhibitory activity of the Compound (I) and the results are shown in the following.
Bone resorption-inhibitory activity
The determination of the bone resorption-inhibitory activity basically followed the method of Raisz [J. Clin. Invest., vol. 44, pp. 103-116 (1965)].
A 1-2 days old new born ICR mouse was intraperitoneally administered with 1.5μ Ci ^45 Ca (CaCl2 solution of isotope of calcium) and parietal bone was asceptically removed the next day. The parietal bone was split into two along the central sature line and one of them was used as a control and the other was used for the experiment. The bone was preincubated in 0.5 ml of a BGJb medium (Fitton-Jackson modification, GIBCO Laboratories, U.S.A.) added with the test compound to a concentration of 5 μM or 20 μM and bovine serum albumin (1 mg/ml) at 37° C. for 2 days, and further incubated in the aforementioned medium containing 50 nM hPTH (1-34) for 3 days. After the incubation, the radioactivity of ^45 Ca in the medium and in the bone was measured and the ratio (%) of ^45 Ca released from the bone into the medium was calculated. [formula]
Using the bone obtained from the same mouse and treated in the same manner without the test compound as a control, the ratio (%) against the control was calculated according to the following equation. [formula]
The average of these values obtained from four pairs from each group was calculated.

Structure (SMILES) | inhibition at 5 µM [%]
CCc1cc2c(s1)-n1c(C)nnc1C(NC(=O)Nc1ccccc1)N=C2c1ccc(Cl)cc1 (stereo not shown) [compound 87] | 31.6
CCc1cc2c(s1)-n1c(C)nnc1C(NC(=O)Nc1ccc(Cl)cc1)N=C2c1ccc(Cl)cc1 (stereo not shown) [compound 75] | 47.7
CCc1cc2c(s1)-n1c(C)nnc1C(NC(=O)Nc1cccc(OC)c1)N=C2c1ccc(Cl)cc1 (stereo not shown) [compound 76] | 29.5

Same assay, conditions: 20 μM, Table 20, average of four pairs, read-out: bone resorption-inhibitory action, % against control

Structure (SMILES) | inhibition at 20 µM [%]
CCCCCCCCCCCc1nnc2n1-c1sc(CC)cc1C(c1ccccc1)OC2 (stereo not shown) [compound 304] | 28.6
Cc1nnc2n1-c1sc(CCc3ccc(CC(C)C)cc3)cc1C(c1ccccc1Cl)=NC2CC(C)C (stereo not shown) [compound 43] | 21.2
Cc1nnc2n1-c1sc(CCc3ccc(CC(C)C)cc3)cc1C(c1ccccc1Cl)OC2 (stereo not shown) [compound 324] | 33.1
CCCCCCCCCCCc1nnc2n1-c1sc3c(c1C(c1ccccc1Cl)OC2)CCCC3 (stereo not shown) [compound 307] | 42.4
Cc1nnc2n1-c1sc3c(c1C(c1ccccc1Cl)=NC2C)CC(C(=O)N1CCOCC1)C3 (stereo not shown) [compound 54] | 31.7
CCCC1N=C(c2ccc(Cl)cc2)c2cc(CCc3ccc(CC(C)C)cc3)sc2-n2c(C)nnc21 (stereo not shown) [compound 42] | 16.9
CCCCCCCCCCCc1nnc2n1-c1sc(CC)cc1C(c1ccc(O)cc1)OC2 (stereo not shown) [compound 302] | 22.4
CCCCCCCc1nnc2n1-c1sc(CC)cc1C(c1ccc(OC)cc1)OC2 (stereo not shown) [compound 348] | 30.3
CCCCCCCCCCCc1nnc2n1-c1sc(CC)cc1C(c1ccc(OCCN(C)C)cc1)OC2 (stereo not shown) [compound 354] | 23.2

Same assay, conditions: read-out: IC50 (figures in parentheses), bone resorption-inhibitory action

Structure (SMILES) | IC50 [µM]
Cc1nnc2n1-c1sc(CCc3ccc(CC(C)C)cc3)cc1C(c1ccccc1Cl)=NC2C (stereo not shown) [compound 9] | 7.5

Same assay, conditions: read-out: bone resorption-inhibitory action, % against control

Structure (SMILES) | inhibition at 20 µM [%]
CCCCCCc1cc2c(s1)-n1c(C)nnc1CN=C2c1ccccc1C [compound 22] | 23.4
Cc1nnc2n1-c1sc(CCc3ccc(CC(C)C)cc3)cc1C(c1ccccc1)=NC2 [compound 1] | 30.7
Cc1cccc(NC(=O)OCC2N=C(c3ccccc3)c3ccccc3-n3c(C)nnc32)c1 (stereo not shown) [compound 510] | 28.3
Cc1nnc2n1-c1sc(CCC(=O)N3CCOCC3)cc1C(c1ccccc1Cl)=NC2 [compound 19] | 61.7
Cc1nnc2n1-c1sc(CCc3ccc(CC(C)C)cc3)cc1C(c1ccccc1Cl)=NC2C (stereo not shown) [compound 9] | 23.7
Cc1cccc(NC(=O)NC2N=C(c3ccc(Cl)cc3)c3ccccc3-n3c(C)nnc32)c1 (stereo not shown) [compound 503] | 30.4
Clc1ccc2c(c1)C(c1ccccc1Cl)=NCc1nccn1-2 [compound 70] | 50.3
CCCCCCCCCCc1ccc2c(c1)C(c1ccccc1)=NC(C)c1nnc(C)n1-2 (stereo not shown) [compound 519] | 21.1
CCCCCCCCCCc1ccc2c(c1)-n1c(C)nnc1C(C)N=C2c1ccccc1 (stereo not shown) [compound 520] | 22.5
Cc1nnc2n1-c1sc3c(c1C(c1ccccc1Cl)=N[C@H]2C)CCN(C(=O)C1CC1)C3 [compound 52] | 29.9
Cc1cccc(NC(=O)NCC2N=C(c3ccc(Cl)cc3)c3ccccc3-n3c(C)nnc32)c1 (stereo not shown) [compound 506] | 32.5
Cc1nnc2n1-c1sc(CCc3ccc(CC(C)C)cc3)cc1C(c1ccccc1F)=NC2 [compound 30] | 20.6
Cc1nnc2n1-c1ccc(Cl)cc1C(c1ccccc1)=NC2 [compound 69] | 21.9
CC(C)Cc1ccc(CCc2nnc3n2-c2ccccc2C(c2ccc(Cl)cc2)=NC3)cc1 [compound 517] | 47.3
COc1ccccc1NC(=O)OCC1N=C(c2ccccc2)c2ccccc2-n2c(C)nnc21 (stereo not shown) [compound 509] | 35
CCCCCCCCCCCc1nnc2n1-c1ccccc1C(c1ccc(Cl)cc1)=NC2 [compound 513] | 43.3
Cc1nnc2n1-c1ccccc1C(c1ccc(Cl)cc1)=NC2NC(=O)NC(=O)c1ccccc1 (stereo not shown) [compound 525] | 26.8
Cc1ccc(S(=O)(=O)OCC2N=C(c3ccccc3)c3ccccc3-n3c(C)nnc32)cc1 (stereo not shown) [compound 518] | 45.4
